Here are results for one molecule from patent US20070027184A1, “Multicyclic sulfonamide compounds as inhibitors of histone deacetylase for the treatment of disease” (KALYPSYS, INC., priority 2005, published 2007).

Data set [1] concerns HDAC. In words: In vitro HDAC-inhibition assay (Fluor de Lys). The data set is classed as biochemical. As to the method: This assay measures a compound's ability to inhibit acetyl-lysine deacetylation in vitro and was used as both a primary screening method as well as for IC50 determinations of confirmed inhibitors. The assay is performed in vitro using an HDAC enzyme source (e.g. partially purified nuclear extract or immunopurified HDAC complexes) and a proprietary fluorescent substrate/developer system (HDAC Quantizyme Fluor de Lys Fluorescent Activity Assay, BIOMOL). The assay is run in 1,536-well Greiner white-bottom plates using the following volumes and order of addition:
Step 1: Enzyme (2.5 ul) source added to plate (from refrigerated container)
Step 2: Compounds (50 nl) added with pin transfer device
Step 3: Fluor de Lys (2.5 ul) substrate added, incubate at RT, 30 minutes
Step 4: Developer (5 ul) solution is added (containing TSA), to stop reaction
Step 5: Plate Reader—data collection
The deacetylated fluorophore is excited with 360 nm light and the emitted light (460 nm) is detected on an automated fluorometric plate reader (Aquest, Molecular Devices).

Data set [2] has as its system HDAC in cells. As to the kind of experiment: Cellular IC50 (cellular histone hyperacetylation / differential cytotoxicity assays). Format: cell-based. As to the method:
These two secondary assays evaluates a compound's ability to inhibit HDAC in cells by measuring cellular histone acetylation levels. The cytoblot facilitates quantitative EC50 information for cellular HDAC inhibition. Transformed cell lines (e.g. HeLa, A549, MCF-7) are cultured under standard media and culture conditions prior to plating.
Cells (approx. 2,500/well) are allowed to adhere 10-24 hours to wells of a 384-well Greiner PS assay plate in media containing 1-5% serum. Cells are treated with appropriate compound and specific concentrations for 0 to 24 hours. Cells are washed once with PBS (60 ul) and then fixed (95% ethanol, 5% acetic acid or 2% PFA) for 1 minute at RT (30 ul). Cells are blocked with 1% BSA for 1 hour and washed and stained with antibody (e.g. anti-Acetylated Histone H3, Upstate Biotechnology), followed by washing and incubation with an appropriate secondary antibody conjugated to HRP or fluorophore. For luminescence assays, signal is generated using Luminol substrate (Santa Cruz Biotechnology) and detected using an Aquest plate reader (Molecular Devices).
HDAC inhibitors display differential cytotoxicity toward certain transformed cell lines. Cells are cultured according to standard ATCC recommended conditions that are appropriate to each cell type. Compounds were tested for their ability to kill different cell types (normal and transformed) using the ATPlite luminescence ATP detection assay system (Perkin Elmer). Assays are run in either 384-well or 1536-well Greiner PS plates. Cells (30 ul or 5 ul, respectively) are dispensed using either multichannel pipette for 384-well plates, or proprietary Kalypsys bulk liquid dispenser for 1536-well plates. Compounds added using proprietary pin-transfer device (500 nL or 5 nL) and incubated 5 to 30 hours prior to analysis. Luminescence is measured using Aquest plate reader (Molecular Devices).

Data set [3] is described as follows: in vivo. The settings on record: female, mouse, in vivo; daily oral gavage; highest dose without lethality or ≧20% bodyweight loss; read-out: Maximum tolerated dose (MTD). As to the method: (§1) 5×10^6 HCT-116 colorectal cancer cells were injected subcutaneously into the right flank of 4-6 week old female nude (nu/nu) mice. […] Tumor burden was determined twice weekly by measurement with calipers in 2-dimensions (length (l)×width (w)) and the volume of spheroid calculated using the formula (l×(w)^2/2). Bodyweight was measured and recorded on same day as tumor volume measurement.

Data set [4] relates to HCT-116 colorectal cancer cells. As to the kind of experiment: in vivo. As for the experimental part:
as §1

Setting [5] is: 50 mg/kg QD orally, data from another study.

Consider `CC(=O)SCC(=O)c1ccc(NS(=O)(=O)c2ccc3c(c2)OCCO3)nc1` [Example 1], for which the half-maximal inhibitory concentration (IC50) in data set [1] and in data set [2] was at most 1000 nM throughout. In addition, in data set [3], the MTD is below 100 mg/kg. Moreover, the Survival in data set [4] (setting [5]) is 10/10; in data set [4] (100 mg/kg QD orally) it was 8/10; in data set [4] (125 mg/kg QD orally), 7/10; in data set [4] (175 mg/kg QD orally) it was 0/10; in data set [4] (250 mg/kg QD orally), 2/10. The T/C in data set [4] (setting [5]) is reported as 53%; in data set [4] (100 mg/kg QD orally) it was 42%; in data set [4] (125 mg/kg QD orally), 29%; in data set [4] (175 mg/kg QD orally), 11%; in data set [4] (250 mg/kg QD orally), 15%. Further, in data set [4] (50 mg/kg, determined previously), the “Tolerability (weight loss, mortality)” value is recorded as “well tolerated”. The “T/C value for efficacy at MTD” value in data set [4] (at MTD, daily oral gavage) stood at 53%.
